Experiment: Ability to inhibit calf thymus topoisomerase I when assayed in the cleavable complex formation

Structure (SMILES) | IC50
CC[C@@]1(O)C(=O)OCc2c1cc1n(c2=O)Cc2cc3cc(N)c(O)cc3nc2-1 [(S)-9-Amino-4-ethyl-4,8-dihydroxy-1,12-dihydro-4H-2-oxa-6,12a-diaza-dibenzo[b,h]fluorene-3,13-dione] | 170 nM
CC[C@@]1(O)C(=O)OCc2c1cc1n(c2=O)Cc2cc3cc4ncoc4cc3nc2-1 [7-ethyl-7-hydroxy-(7S)-7,8,11,13-tetrahydro-10H-[1,3]oxazolo[4,5-g]pyrano[3',4':6,7]indolizino[1,2-b]quinoline-8,11-dione] | 150 nM

Source: BindingDB's records for doi:10.1016/0960-894X(95)00360-6 (1995)
